In publication PMC6325233, “A Novel Actin Binding Drug with In Vivo Efficacy” (Antimicrobial Agents and Chemotherapy, 2018):
Entries after “also recorded” stand apart in the source; their conditions may differ.

Columns and labels:
yeast = details: cited from earlier work
Description: Occidiofungin is a nonribosomally synthesized glycolipopeptide produced by the soil bacterium Burkholderia contaminans MS14 ([21]). It is a cyclic peptide with a base mass of 1,200 Da (Fig. 1) ([21]). Occidiofungin has a wide spectrum of activities against filamentous and nonfilamentous fungi and minimal toxicity in an animal system ([21], [22]).

[1] = system: Cryptococcus neoformans 28446; experiment: MIC susceptibility testing; format: cell-based; design: key to MIC, 50% inhibition: -: indicates absence of isolates with 50% inhibition endpoint; details: CLSI M27-A3; 72 hours
Procedure: (§1) Occidiofungin was purified from a liquid culture of Burkholderia contaminans MS14 as previously described ([21]). MIC susceptibility testing was performed according to the CLSI M27-A3 and M38-A2 standards for the susceptibility testing of yeasts and filamentous fungi, respectively. S. cerevisiae deletion mutants were obtained from the commercially available BY4741 deletion library (Thermo Scientific).

Candida krusei 9541 = experiment: MIC susceptibility testing; format: cell-based; design: key to MIC, 50% inhibition: -: indicates absence of isolates with 50% inhibition endpoint; details: CLSI M27-A3
Procedure: as §1

Rhizopus oryzae 28403 = experiment: MIC susceptibility testing; format: cell-based; design: key to MIC, 50% inhibition: -: indicates absence of isolates with 50% inhibition endpoint; details: CLSI M38-A2
Procedure: as §1

[2] = system: Candida parapsilosis 28174; experiment: MIC susceptibility testing; format: cell-based; design: key to MIC, 50% inhibition: -: indicates absence of isolates with 50% inhibition endpoint; details: CLSI M27-A3
Procedure: as §1

Fusarium oxysporum 27718 = experiment: MIC susceptibility testing; format: cell-based; design: key to MIC, 50% inhibition: -: indicates absence of isolates with 50% inhibition endpoint; details: CLSI M38-A2
Procedure: as §1

Aspergillus flavus 28517 = experiment: MIC susceptibility testing; format: cell-based; design: key to MIC, 50% inhibition: -: indicates absence of isolates with 50% inhibition endpoint; details: CLSI M38-A2
Procedure: as §1

[3] = system: Cryptococcus neoformans 27708; experiment: MIC susceptibility testing; format: cell-based; design: key to MIC, 50% inhibition: -: indicates absence of isolates with 50% inhibition endpoint; details: CLSI M27-A3; 72 hours
Procedure: as §1

[4] = system: Schizosaccharomyces pombe; experiment: Intracellular localization and competition, fluorescence microscopy; format: cell-based; details: pretreatment with 1× MIC native occidiofungin
Procedure: S. pombe and S. cerevisiae cells (OD600 of 0.6 to 0.8) were incubated with 1× MIC of alkyne-OF at 30°C, with samples removed at 10, 30, and 60 min postincubation. The cells were washed in PBS and fixed with 3.7% formaldehyde. The cells were permeabilized by adding 0.5% Triton X-100. The cells were washed with PBS before the Click reaction with azide-derivatized Alexa Fluor 488 (Click-iT EdU imaging kit; Thermo Fisher Scientific). The cells were visualized with an Olympus FV1000 confocal microscope. A competition assay was carried out by pretreating cells with 1× MIC of the native occidiofungin followed by treatment with alkyne-OF. […] A 6.6 µM concentration of tetramethyl rhodamine isothiocyanate (TRITC)-tagged phalloidin was added to formaldehyde-fixed cells (permeabilized with 0.2% Triton X-100) for 30 min at room temperature. The cells were washed in PBS, added to a concanavalin A-treated glass slides, and overlaid with Vectashield plus DAPI. Images were viewed using a Nikon 50i fluorescence microscope with a 100× oil immersion objective and Texas Red and DAPI filter sets. Random images were captured using a Retiga EXi black and white charge-coupled-device (CCD) camera and Image Q software. All images were captured using the same exposure settings, with the image contrast altered postcapture using CorelDraw.

[5] = biological target: T1, rabbit skeletal muscle F-actin (Oryctolagus cuniculus, UniProt P68135); experiment: Affinity pulldown with biotinylated alkyne-OF and streptavidin beads; format: binding; details: 24 μg F-actin, 8 μg alkyne-OF, azide-biotin, streptavidin beads, silver stain
T1 construct: Purified rabbit skeletal muscle filamentous actin (catalog number AKF99); purchased Cytoskeleton, Inc. AKF99; host or cells: rabbit skeletal muscle (tissue-purified)
Procedure: (§2) Purified rabbit skeletal muscle filamentous actin (catalog number AKF99) and G-actin (catalog number AKL95) were purchased from Cytoskeleton, Inc. Actin was reconstituted in Milli-Q water to achieve a stock concentration of 0.4 mg/ml in a buffer that consisted of 5 mM Tris-HCl (pH 8.0), 0.2 mM CaCl2, 0.2 mM ATP, 2 mM MgCl2, and 5% (wt/vol) sucrose as directed by the supplier. This solution was stored at −80°C in 50-μl aliquots until use. Immediately before use, each aliquot was thawed by placing it in a 37°C water bath for 5 min and then at room temperature. For all studies, 24 μg of F- or G-actin was used with 8 μg alkyne-OF. F-actin filaments were reacted with native occidiofungin for 15 min at room temperature at molar ratios of 1:10 (24 μg actin to 8 μg native occidiofungin) and 1:5 (24 μg actin to 4 μg native occidiofungin). As per the manufacturer’s instructions, Acti-stain 670 phalloidin (Cytoskeleton, Inc.) was used as a control in an in vitro actin filament binding study. Actin filaments treated with DMSO (solvent blank negative control) were stained and observed for comparison. The actin filaments were visualized on an Olympus FV1000 confocal microscope. Pulldown assays were performed using alkyne-OF with azide-biotin (Click-iT protein reaction buffer kit; Thermo Fisher Scientific), according to the manufacturer’s instructions. The proteins captured by biotinylated alkyne-OF on streptavidin beads were eluted by boiling in 50 µl of SDS sample loading buffer. The sample was electrophoresed through a 12% SDS gel, and protein bands were visualized by silver staining (Pierce Silver stain kit; Thermo Fisher Scientific) according to the manufacturer’s protocol. F- and G-actin treated with DMSO and native occidiofungin were used as the controls.

[6] = system: rabbit skeletal muscle G-actin; experiment: as above; format: binding; details: 24 μg G-actin, 8 μg alkyne-OF, azide-biotin, streptavidin beads, silver stain
Procedure: as §2

Candida krusei 28415 = experiment: MIC susceptibility testing (fluconazole-resistant strain); format: cell-based; details: CLSI M27-A3
Procedure: as §1

occidiofungin
impact on growth rate of yeast (yeast; subinhibitory concentrations): little to no impact on the growth rate of yeast | induction of apoptosis (yeast; yeast cells at the MIC): rapidly induces apoptosis in yeast cells | MIC, 50% inhibition [1]: - | MIC, 100% inhibition [1]: 1 mg/L | MIC, 50% inhibition (Candida krusei 9541; 24 hours): 2 mg/L | MIC, 100% inhibition (Candida krusei 9541; 24 hours): 4 mg/L | MIC, 50% inhibition (Candida krusei 9541; 48 hours): - | MIC, 100% inhibition (Candida krusei 9541; 48 hours): 4 mg/L | MIC, 50% inhibition (Rhizopus oryzae 28403; 24 hours): 4 mg/L | MIC, 100% inhibition (Rhizopus oryzae 28403; 24 hours): 8 mg/L | MIC, 50% inhibition (Rhizopus oryzae 28403; 48 hours): - | MIC, 100% inhibition (Rhizopus oryzae 28403; 48 hours): 8 mg/L | MIC, 50% inhibition ([2]; 24 hours): - | MIC, 100% inhibition ([2]; 24 hours): 4 mg/L | MIC, 50% inhibition ([2]; 48 hours): - | MIC, 100% inhibition ([2]; 48 hours): 4 mg/L | MIC, 50% inhibition (Fusarium oxysporum 27718; 24 hours): 2 mg/L | MIC, 100% inhibition (Fusarium oxysporum 27718; 24 hours): 4 mg/L | MIC, 50% inhibition (Fusarium oxysporum 27718; 48 hours): - | MIC, 100% inhibition (Fusarium oxysporum 27718; 48 hours): 4 mg/L | MIC, 50% inhibition (Aspergillus flavus 28517; 24 hours): - | MIC, 100% inhibition (Aspergillus flavus 28517; 24 hours): 4 mg/L | MIC, 50% inhibition (Aspergillus flavus 28517; 48 hours): - | MIC, 100% inhibition (Aspergillus flavus 28517; 48 hours): 4 mg/L | MIC, 50% inhibition [3]: - | MIC, 100% inhibition [3]: 2 mg/L | competition with alkyne-OF localization [4]: the observed cellular localization patterns disappeared; also recorded: does not bind | copurification/binding with F-actin [5]: directly bind to F- or G-actin | copurification/binding with F-actin ([5]; listed as native OF): actin was not detected in the control lanes | copurification/binding with G-actin [6]: directly bind to F- or G-actin | copurification/binding with G-actin ([6]; listed as native OF): actin was not detected in the control lanes | MIC, 50% inhibition (Candida krusei 28415; 24 hours): 4 mg/L | MIC, 100% inhibition (Candida krusei 28415; 24 hours): 8 mg/L | MIC, 50% inhibition (Candida krusei 28415; 48 hours): 4 mg/L | MIC, 100% inhibition (Candida krusei 28415; 48 hours): 8 mg/L
